Results reported in US20110136752A1, “NOVEL ANTIBIOTICS” (priority 2009, published 2011).

Legend:
[1] = system: NIH3T3 mouse embryonic fibroblasts; test: Mammalian cytotoxicity, CellTiter 96 AQueous One Solution assay; type: cell-based; conditions: NIH3T3 cells, 24 hr, highest tested concentration 16 μg/ml
Procedure: Mammalian cytotoxicity assays were performed using NIH3T3 mouse embryonic fibroblasts (ATCC CRL-1658), and cytotoxicity was measured using the CellTiter 96® AQueous One Solution Cell Proliferation Assay (Promega, Madison, Wis., Cat: G3582), according to the manufacturer's recommendations.
100× working stocks of 2-fold serial dilution of NOVO4 in DMSO were created in a 96 well format. The highest concentration of the 100× concentration (working stock) was prepared by adding […] of the stock solution of NOVO4 (10 mg/ml in DMSO) for every 0.68 μl of DMSO to well A02. 0.5 μl of this 100× stock was added for every 0.5 μl of DMSO in well A03 to create a total of 7 two-fold serial dilution series, from 1600 μg/ml to 25 μg/ml (from highest in well A02 to A08,). A DMSO control was also included (wells in column A01, and A12). […]
The plate was visually inspected under a dissecting microscope, and the absorbance at 490 nm was read using a Spectramax Plus Spectrophotometer, with wells A12, and B12 reserved as blanks The signal of compound alone (well A11) was verified not to contribute to the absorbance at this wavelength. Next, 20 μl of the CellTiter 96® AQueous One Solution Cell Proliferation Assay (Promega, Madison, Wis., Cat: G3582) was added to each well, and the plate was read after 3 hr of incubation. […]

[2] = system: different bacterial test strains; test: Effect of serum or BSA supplement on MIC of NOVO4; type: cell-based
Procedure: The lowest concentration of NOVO4 without any cell growth is the MIC (Minimal Inhibitory Concentration) of NOVO4. The data is the MIC of NOVO4 on different bacterial test strains in the presence of Mueller Hinton broth (MHB) or with MHB supplemented with either […].
These studies follow the procedure for determining the MIC described above in Example 5. Briefly, two-fold serial dilution of the NOVO4 compound are added to the test cells of interest, MRSA and VRE, and the lowest concentration of compound that inhibits growth after a period of incubation is considered to be the MIC. To determine the effect of serum on the activity of NOVO4, MIC in the absence of serum is compared to MIC in media supplemented with 10% calf bovine serum (ATCC 30-2030).

[3] = system: human red blood cells; type: cell-based
Procedure: The effect of NOVO4 on the hemolysis of human red blood cells was also tested. A total of 10 ml of expired packed red blood cells from the blood bank was gently added to 80 ml of PBS (Phosphate buffered saline), and pelleted at 1000 g for 5 minutes at 4° C. The upper phase and buffy layer (white blood cells) were removed. The cells are repeatedly washed by gentle mixing with PBS, and centrifugation until the upper phase is clear. In the last wash, 40 ml of 1× PBS with 0.05% BSA was added to half of the red blood cells while 40 ml of 1× PBS without BSA was added to the other half. The upper phase of the last wash was removed to leave a total volume of about 10 ml. The concentration of the red blood cells was measured by using the spectrophometer at 600 nm. An aliquot of the cells are diluted to a final density OD600 of 24 in 1× PBS, and another to a final density OD600 of 24 in 1× PBS with 0.05% BSA.
The compound NOVO4 is two-fold serially diluted (similar to that described above for mammalian NIH3T3 cytotoxicity assay) as 100× concentration in DMSO, ranging from 0.4 μg/ml to 400 μg/ml. […] After thorough mixing, the A450 was read using a Spectramax Plus Spectrophotometer, using wells with only 1× PBS as blanks […]

[4] = Single-dose acute toxicity in mice; conditions: mouse, in vivo; female CD-1 mice, SC, 3 doses of 50 mg/kg 2 hours apart in 0.5% methylocellulose, followed for 2 days
Procedure: Single-dose, acute toxicity experiments were carried out in female CD-1 mice. The animals were acclimated for 3 days and were 7 weeks old at the start of the experiments. Their weight ranged from 16 to 24 g.
In order to determine the maximum tolerated dose, a group of 3 mice was dosed with a total of 4.9 mg/kg of NOVO4 (10% DMSO in saline) delivered as two separate IV doses, 2 hr apart. In addition, another 3 mice were dosed subcutaneously with a total of 150 mg/kg of NOVO4 in 0.5% methylocellulose, delivered as 3 doses of 50 mg/kg each, 2 hours apart. The mice were then followed for 2 days.
This indicated a very high MTD of >150 mg/kg for NOVO4.

Row | Compound | LD50 [1] [µg/mL] | effect of 0.05% BSA on the MIC ([2]; MHB versus MHB + 0.05% BSA, depending on the test organisms) | effect of calf bovine serum on the MIC ([2]; MHB versus media supplemented with 10% calf bovine serum) | hemolysis [3] | MTD at 2 days [4] [mg/kg] | A450 (hemoglobin released by lysis of red blood cells) [3]
1 | CC1\C=C/C=C\C=C/C=C\C=C/C(OC2OCC(O)C(O)C2N)C(C)(O)/C=C/C=C\C=C/C=C/C(=O)NC1 (stereo not drawn) [NOVO4] | > 16 | either unchanged or lowered sightly | no significant effect | no significant hemolysis | > 150 | 
2 | Triton X100 [reference compound] |  |  |  |  |  | 0.41
